Results from patent US20240173289A1, “USE OF OXYMETHYL-MODIFIED DERIVATIVE OF QUERCETIN IN PREPARATION OF DRUG FOR INHIBITING TUMOR CELL PROLIFERATION” (ZHEJIANG UNIVERSITY, priority 2021, published 2024).
Converted amounts (≈) assume the structure as drawn.

Experiments:
[1] = system: liver cancer cell line HepG2; assay: in vitro cell proliferation inhibition (CCK-8); type: cell-based; conditions: Homo sapiens, 48 h incubation, read-out: IC50
Source text: (§1) Osteosarcoma cell line 143B, HOS, and U2, liver cancer cell line HepG2, breast cancer cell line MDA-MB-231 and T47D, gastric cancer cell line AGS, BGC-823, and SGC-7901, cervical cancer cells Hela, lung cancer cells A549, intestinal cancer cells Caco2, mouse glioma cells BV-2, human prostate cancer cells PC3, human thyroid cancer cell line BCPAP, human normal liver cell line L02, human normal gastric cell line GES, human umbilical vein epithelial cells HUVEC, and human embryonic lung fibroblasts WI-38 were cultured in a DMEM medium containing 10% fetal bovine serum and 1×HEPES in a humid incubator (37° C., 5% CO2). The cells were passaged with trypsin-EDTA in logarithmic phase. Certain density of cells (AGS, T47D, Caco2, BCPAP, GES, HUVEC 1×10^5 cells per well; HepG2, MDA-MB-231, BGC-823, A549, PC3, L02 8×10^4 cells per well; 143B, HOS, U2, SGC-7901, Hela, BV-2, 5×10^4 cells per well; WI-38, 3×10^5 cells per well) were inoculated in a 96-well plate, and cultured for 24 h before treatment. After replacing a fresh medium, 12.5 mg/L to 400 mg/L of quercetin, quercetin 3-methyl ether, and quercetin 3,3′-dimethyl ether dissolved with DMSO were added into the medium (a final volume ratio was 0.1%, and the DMSO was used as a […]). After incubation for 48 h, a complete medium was replaced with a serum-free medium containing 10% CCK-8 reagent. The absorbance at 450 nm and 620 nm was measured separately after the cells were incubated for 1 h. Each experiment was repeated three times independently.
as §1, with “400 mg/L,” for “400 mg/L”, “of” for “of quercetin, quercetin 3-methyl ether, and”, “DMSO was” for “DMSO were”, “into a” for “into the”

[2] = system: gastric cancer cell line SGC-7901; assay: in vitro cell proliferation inhibition (CCK-8); type: cell-based; conditions: Homo sapiens, SGC-7901, SGC7901, 48 h incubation, read-out: IC50
Source text: as §1
as §1, with “400 mg/L,” for “400 mg/L”, “of” for “of quercetin, quercetin 3-methyl ether, and”, “DMSO was” for “DMSO were”, “into a” for “into the”

[3] = system: HepG2 transplanted tumors; assay: proliferation of HepG2 transplanted tumors in nude mice in vivo; parameters: species or system BALB/c nude mice; conditions: 50 mg/kg bw·d intraperitoneal
Procedure: BALB/c nude mice (5 to 6 weeks old), weighing 19 g to 22 g, were purchased from Shanghai Experimental Animal Center, Chinese Academy of Sciences. HepG2 cells were collected in a serum-free DMEM medium to make a cell suspension, and then the cell suspension was injected into an underarm area of each mouse, approximately 2.0×10^6 cells, one site per mouse. All mice were bred in the Experimental Animal Center of Zhejiang University, under the environment of 23° C. to 25° C., humidity 50% to 60%, and cycle of 12 h light illumination/dark 12 h. After tumor formation, the mice were randomly divided into 3 groups with 7 mice in each group. The model group was given saline by intraperitoneal injection; the positive drug group was given tegafur at 10 mg/kg bw·d by intraperitoneal injection; the treatment group was intraperitoneally injected with the quercetin 3,3′-dimethyl ether at 50 mg/kg bw·d. According to the change of tumor volume, after the tumor formed, intraperitoneal injection was conducted every 1 d to 2 d, the tumor volume was measured, and the body weight of the mice was weighed. When there was a significant difference in tumor volume between different treatment groups, the mice were sacrificed by cervical dislocation, and the tumor tissue was carefully peeled off, weighed, and calculated. The formulas were: tumor formation rate (%)=(number of tumor-forming mice in treatment group/number of tumor-forming mice in inoculation group)×100; tumor inhibition rate (%)=(average tumor weight in control group (g)−average tumor weight in administration group (g))/average tumor weight in control group (g)×100. Serum, liver, spleen, and kidney were collected and weighed.

- IC50 [1]: 5.85 µg/mL (≈ 17.7 µM)
- IC50 [2]: 28.4 µg/mL (≈ 85.9 µM)
SMILES: COc1cc(-c2oc3cc(O)cc(O)c3c(=O)c2OC)ccc1O [Quercetin 3,3′-dimethyl ether, quercetin 3,3′-dimethyl ether]
- tumor weight, lower than that of the control group [3]: 52.19%
- tumor volume ([3]; day 24, 10 injections, HepG2 nude mice): 284.19±85.47 mm^3
- tumor weight ([3]; tumor peeled off at sacrifice): 194.57 ± 75.45 mg
